Measured values: patent US10722501B2 (BAYER AKTIENGESELLSCHAFT, priority 2016, dated 2020)

Target: T1, recombinant full-length human prolyl endopeptidase (PREP) (Homo sapiens, UniProt P48147)
T1 construct: To recombinant full-length human prolyl endopeptidase (PREP, R&D-Systems, 4308-SE); purchased R&D-Systems 4308-SE
T1 sequence (P48147 1-710): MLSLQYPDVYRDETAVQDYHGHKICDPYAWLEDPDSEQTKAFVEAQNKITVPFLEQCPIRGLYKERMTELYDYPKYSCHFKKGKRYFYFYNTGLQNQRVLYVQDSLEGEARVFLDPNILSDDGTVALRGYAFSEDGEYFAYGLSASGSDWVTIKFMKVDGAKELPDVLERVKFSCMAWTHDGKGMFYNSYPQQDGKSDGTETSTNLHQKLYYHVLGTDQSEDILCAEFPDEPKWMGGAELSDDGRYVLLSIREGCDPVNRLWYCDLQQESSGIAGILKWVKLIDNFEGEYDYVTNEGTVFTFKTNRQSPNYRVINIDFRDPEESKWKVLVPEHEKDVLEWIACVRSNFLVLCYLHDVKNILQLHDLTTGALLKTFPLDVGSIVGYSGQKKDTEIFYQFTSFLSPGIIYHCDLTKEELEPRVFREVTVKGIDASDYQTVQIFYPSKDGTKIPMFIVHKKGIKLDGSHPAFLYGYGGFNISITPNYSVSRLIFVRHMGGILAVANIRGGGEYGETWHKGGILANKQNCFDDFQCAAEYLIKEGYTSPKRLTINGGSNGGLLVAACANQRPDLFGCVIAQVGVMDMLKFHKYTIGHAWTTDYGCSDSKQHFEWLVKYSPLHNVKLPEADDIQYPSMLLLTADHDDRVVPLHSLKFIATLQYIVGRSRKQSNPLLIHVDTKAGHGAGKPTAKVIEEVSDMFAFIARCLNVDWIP
Test: Biochemical human prolyl endopeptidase (PREP) assay with fluorescently labelled substrate
Conditions: substrate Z-Gly-Pro-AMC 50 μM, 32° C., 60 min; some as mean values from multiple independent determinations
Procedure: B-1 Biochemical Human Prolyl Endopeptidase (PREP) Assay for Identification of Inhibitors of PREP Activity Using a Fluorescently Labelled Substrate Principle of the Assay:
The enzymatic conversion of the fluorescent peptide substrate was observed on the basis of the measurement of the fluorescence intensity. The enzyme activity was determined by the ascertaining of the initial slope in the increase in fluorescence. Compounds that inhibit PREP were identified on the basis of the decrease in the initial slope compared to a reaction mixture without test compound.
Determination of Activity:
IC50 values were determined by the plotting of the percentage PREP activity against the concentration of the test substance by interpolation.
To recombinant full-length human prolyl endopeptidase (PREP, R&D-Systems, 4308-SE; final concentration, for example, 0.4 nM, volume: 25 μl) in reaction buffer (50 mM Tris-HCl, pH 7.5; 150 mM NaCl; 0.13% BSA, 5 mM EDTA, 3 mM GSH, 0.005% Brij-35) was added a test compound (in DMSO, in an appropriate final concentration range from 1 nM to 30 μM, volume: 1 μl) in a well of a 384-well microtitre plate. The reaction was initiated by adding the substrate Z-Gly-Pro-AMC (final concentration 50 μM; Z=carboxybenzyl; AMC=7-amino-4-methylcoumarin, volume: 25 μl). The progress of the PREP reaction was observed by measuring the fluorescence intensity in a Tecan SAFIRE II plate spectrophotometer at 32° C. over a period of 60 min (excitation wavelength: 360 nm, emission wavelength: 465 nm).
Table B-1 below collates the IC50 values thus obtained from the human prolyl endopeptidase assay for individual working examples of the invention (some as mean values from multiple independent individual determinations).

Structure (SMILES)	IC50 [nM]
O=C(C1CCCc2nn(Cc3ccc(Cl)c(C(F)(F)F)c3)c(=O)n21)N1CCC(F)(F)C1 (racemic) [Example 43]	1.9
O=C(C1CCCc2nn(Cc3cccc(Cl)c3)c(=O)n21)N1CCC(F)(F)C1 (racemic) [Example 44, (5RS)-2-(3-Chlorobenzyl)-5-[(3,3-difluoropyrrolidin-1-yl)carbonyl]-5,6,7,8-tetrahydro[1,2,4]triazolo[4,3-a]pyridin-3(2H)-one]	2.1
O=C(C1CCCc2nn(Cc3ccc(Cl)c(Cl)c3)c(=O)n21)N1CCC(F)(F)C1 (racemic) [Example 45, (5RS)-2-(3,4-Dichlorobenzyl)-5-[(3,3-difluoropyrrolidin-1-yl)carbonyl]-5,6,7,8-tetrahydro[1,2,4]triazolo[4,3-a]pyridin-3(2H)-one]	1.6
O=C(C1CCCc2nn(Cc3cccc(C(F)(F)F)c3)c(=O)n21)N1CCC(F)(F)C1 (racemic) [Example 47, (5RS)-5-[(3,3-Difluoropyrrolidin-1-yl)carbonyl]-2-[3-(trifluoromethyl)benzyl]-5,6,7,8-tetrahydro[1,2,4]triazolo[4,3-a]pyridin-3(2H)-one]	1.6
COc1ccc(Cn2nc3n(c2=O)C(C(=O)N2CCC(F)(F)C2)CCC3)cc1Cl (racemic) [Example 49, (5RS)-2-(3-Chloro-4-methoxybenzyl)-5-[(3,3-difluoropyrrolidin-1-yl)carbonyl]-5,6,7,8-tetrahydro[1,2,4]triazolo[4,3-a]pyridin-3(2H)-one]	1.75
O=C(C1CCCc2nn(Cc3ccc(Cl)s3)c(=O)n21)N1CCC(F)(F)C1 (racemic) [Example 54, (5RS)-2-[(5-Chloro-2-thienyl)methyl]-5-[(3,3-difluoropyrrolidin-1-yl)carbonyl]-5,6,7,8-tetrahydro[1,2,4]triazolo[4,3-a]pyridin-3(2H)-one]	1.3

The remaining lines, values ahead:

IC50 [nM]	Structure (SMILES)
13	O=C(C1CCCc2nn(CC3CCC(F)(F)CC3)c(=O)n21)N1CCCC1 (racemic) [Example 41, (5RS)-2-[(4,4-Difluorocyclohexyl)methyl]-5-(pyrrolidin-1-ylcarbonyl)-5,6,7,8-tetrahydro[1,2,4]triazolo[4,3-a]pyridin-3(2H)-one]
1.45	Cc1ccc(Cn2nc3n(c2=O)C(C(=O)N2CCC(F)(F)C2)CCC3)cc1 (racemic) [Example 42, (5RS)-5-[(3,3-Difluoropyrrolidin-1-yl)carbonyl]-2-(4-methylbenzyl)-5,6,7,8-tetrahydro[1,2,4]triazolo[4,3-a]pyridin-3(2H)-one]
0.95	COc1ccc(Cn2nc3n(c2=O)C(C(=O)N2CCCC2)CCC3)cc1Cl (racemic) [Example 46, (5RS)-2-(3-Chloro-4-methoxybenzyl)-5-(pyrrolidin-1-ylcarbonyl)-5,6,7,8-tetrahydro[1,2,4]triazolo[4,3-a]pyridin-3(2H)-one]
5	COc1cccc(Cn2nc3n(c2=O)C(C(=O)N2CCC(F)(F)C2)CCC3)c1 (racemic) [Example 48, (5RS)-5-[(3,3-Difluoropyrrolidin-1-yl)carbonyl]-2-(3-methoxybenzyl)-5,6,7,8-tetrahydro[1,2,4]triazolo[4,3-a]pyridin-3(2H)-one]
0.71	O=C(C1CCCc2nn(Cc3ccc(Cl)s3)c(=O)n21)N1CCCC1 (racemic) [Example 53, (5RS)-2-[(5-Chloro-2-thienyl)methyl]-5-(pyrrolidin-1-ylcarbonyl)-5,6,7,8-tetrahydro[1,2,4]triazolo[4,3-a]pyridin-3(2H)-one]
5.6	O=C(C1CCCc2nn(Cc3cccc(F)c3)c(=O)n21)N1CCC(F)(F)C1 (racemic) [Example 56, (5RS)-5-[(3,3-Difluoropyrrolidin-1-yl)carbonyl]-2-(3-fluorobenzyl)-5,6,7,8-tetrahydro[1,2,4]triazolo[4,3-a]pyridin-3(2H)-one]
4.1	Cc1ccc(CCn2nc3n(c2=O)C(C(=O)N2CCCC2)CCC3)cc1 (racemic) [Example 57, (5RS)-2-[2-(4-Methylphenyl)ethyl]-5-(pyrrolidin-1-ylcarbonyl)-5,6,7,8-tetrahydro[1,2,4]triazolo[4,3-a]pyridin-3(2H)-one]
